Assay results: ChEMBL document CHEMBL3421624, “Design and Synthesis of Antitumor Heck-Coupled Sclareol Analogues: Modulation of BH3 Family Members by SS-12 in Autophagy and Apoptotic Cell Death” (J Med Chem, 2015)
Activity calls are given as the source filed them. No cut-off for these calls is given here.

Columns and labels:
[1] = test system: A549; test: Cytotoxicity against human A549 cells after 48 hrs by MTT assay; format: functional, cell-based; conditions: A549, 48 h
[2] = Cytotoxicity against human PC3 cells after 48 hrs by MTT assay; format: functional, cell-based; conditions: PC-3, 48 h
[3] = test system: HeLa; test: Cytotoxicity against human HeLa cells after 48 hrs by MTT assay; format: functional, cell-based
[4] = test system: PC-3; test: Induction of autophagy in human PC3 cells at 100 to 300 nM after 24 hrs by acridine orange staining based fluorescence microscopy; format: functional
[5] = test system: PC-3; test: Induction of autophagy in human PC3 cells at 100 to 300 nM after 24 hrs by MDC staining based fluorescence microscopy; format: functional, cell-based
[6] = test system: PC-3; test: Effect on MAP1LC3 I/II protein expression in human PC3 cells at 0.2 to 0.3 uM after 24 hrs by immunoblotting method; format: functional, cell-based
[7] = test system: PC-3; test: Effect on SQSTM1/P62 protein expression in human PC3 cells at 0.2 to 0.3 uM after 24 hrs by immunoblotting method; format: functional, cell-based
[8] = test system: PC-3; test: Inhibition of Akt in human PC3 cells assessed as reduction in mTOR S2448 phosphorylation at 0.1 to 0.3 uM after 24 hrs by Western blotting method; format: cell-based
[9] = test system: PC-3; test: Induction of autophagy in human PC3 cells at 100 to 300 nM after 24 hrs; format: functional, cell-based
[10] = test system: PC-3; test: Induction of apoptosis in human PC3 cells assessed as caspase-3 cleavage at 300 nM after 24 hrs by Western blotting method; format: functional, cell-based
[11] = test system: PC-3; test: Induction of apoptosis in human PC3 cells at 100 to 300 nM after 24 hrs; format: functional, cell-based
[12] = test system: PC-3; test: Inhibition of Akt S473 phosphorylation in human PC3 cells at 0.1 to 0.3 uM after 24 hrs by Western blotting method; format: cell-based
[13] = test system: PC-3; test: Effect on Beclin-1 protein expression in human PC3 cells at 0.2 to 0.3 uM after 24 hrs by immunoblotting method; format: functional, cell-based
[14] = test system: PC-3; test: Induction of autophagy in human PC3 cells assessed as increase in punctate EGFP-LC3 pattern in autophagosomes at 300 nM after 24 hrs by fluorescence microscopy; format: functional, cell-based
[15] = test system: PC-3; test: Induction of autophagy in human PC3 cells assessed as increase LC3 intracellular localization at 100 nM after 24 hrs by immunocytochemistry; format: functional, cell-based
[16] = test system: PC-3; test: Induction of autophagy in human PC3 cells assessed as increase in punctate EGFP-LC3 pattern in autophagosomes at 100 nM after 24 hrs by fluorescence microscopy; format: functional, cell-based

SMILES | IC50 [1] [µM] | IC50 [2] [nM] | IC50 [3] [µM] | also measured
Cc1cccc(/C=C/[C@](C)(O)CC[C@@H]2[C@@]3(C)CCCC(C)(C)[C@@H]3CC[C@@]2(C)O)c1C | 3.8 | 3500 | 3.7 | –
CC1(C)CCC[C@]2(C)[C@@H](CC[C@@](C)(O)/C=C/c3ccccc3)[C@](C)(O)CC[C@@H]12 | 3.15 | 121 | 3.32 | Activity [4]: Active; Activity [5]: Active
Cc1cccc(C)c1/C=C/[C@](C)(O)CC[C@@H]1[C@@]2(C)CCCC(C)(C)[C@@H]2CC[C@@]1(C)O | 3.34 | 278 | 3.46 | –
Cc1ccc(C)c(/C=C/[C@](C)(O)CC[C@@H]2[C@@]3(C)CCCC(C)(C)[C@@H]3CC[C@@]2(C)O)c1 | 3.32 | 176 | 3.38 | Activity [4]: Active; Activity [5]: Active
CN[C@@H]1C[C@H]2O[C@@](C)([C@@H]1OC)n1c3ccccc3c3c4c(c5c6ccccc6n2c5c31)C(=O)NC4 [STAUROSPORINE] | – | 31 | – | –
CC1(C)CCC[C@]2(C)[C@@H](CC[C@@](C)(O)/C=C/c3c4ccccc4c(Br)c4ccccc34)[C@](C)(O)CC[C@@H]12 | 44.9 | 301 | 46 | –
CC(C)(C)c1ccc(/C=C/[C@](C)(O)CC[C@@H]2[C@@]3(C)CCCC(C)(C)[C@@H]3CC[C@@]2(C)O)cc1 | 45 | 3800 | 48.5 | –
CC1(C)CCC[C@]2(C)[C@@H](CC[C@@](C)(O)/C=C/c3ccc(Br)cc3)[C@](C)(O)CC[C@@H]12 | 43.2 | 41300 | 45.9 | –
CC1(C)CCC[C@]2(C)[C@@H](CC[C@@](C)(O)/C=C/c3cncc4ccccc34)[C@](C)(O)CC[C@@H]12 | 45.7 | 3900 | 46 | –
C=C[C@](C)(O)CC[C@@H]1[C@@]2(C)CCCC(C)(C)[C@@H]2CC[C@@]1(C)O [SCLAREOL] | 3.21 | 105 | 3.35 | Activity [4]: <=5%; Activity [6]: inactive; Activity [7]: inactive; inhibition [8]: Active; Activity [9]: inactive; Activity [10]: Active; Activity [11]: inactive; inhibition [12]: Active; Activity [13]: inactive
CC1(C)CCC[C@]2(C)[C@@H](CC[C@@](C)(O)/C=C/c3ccc(C(=O)O)cc3)[C@](C)(O)CC[C@@H]12 | 44.3 | 102 | 45.4 | Activity [4]: Active; Activity [5]: Active
CC1(C)CCC[C@]2(C)[C@@H](CC[C@@](C)(O)/C=C/c3cccc([N+](=O)[O-])c3)[C@](C)(O)CC[C@@H]12 | 3.4 | 153 | 3.38 | Activity [4]: Active; Activity [5]: Active
CO/C1=C\C(C)=C\[C@@H](C)[C@@H](O)[C@@H](C)C/C(C)=C/C=C/[C@H](OC)[C@@H]([C@@H](C)[C@@H](O)[C@H](C)[C@@]2(O)C[C@@H](O)[C@H](C)[C@@H](C(C)C)O2)OC1=O | – | – | – | Activity [14]: inactive
CC1(C)CCC[C@]2(C)[C@@H](CC[C@@](C)(O)/C=C/c3ccc(Oc4ccccc4)cc3)[C@](C)(O)CC[C@@H]12 | 3.2 | 268 | 3.48 | –
COc1cccc(/C=C/[C@](C)(O)CC[C@@H]2[C@@]3(C)CCCC(C)(C)[C@@H]3CC[C@@]2(C)O)c1OC | 3.28 | 2900 | 3.88 | –
CC1(C)CCC[C@]2(C)[C@@H](CC[C@@](C)(O)/C=C/c3ccc(Cl)nc3)[C@](C)(O)CC[C@@H]12 | 3.28 | 275 | 3.68 | –
COc1cccc(OC)c1/C=C/[C@](C)(O)CC[C@@H]1[C@@]2(C)CCCC(C)(C)[C@@H]2CC[C@@]1(C)O | 42 | 4000 | 48.2 | –
CO[C@H]1C[C@@H]2CC[C@@H](C)[C@@](O)(O2)C(=O)C(=O)N2CCCC[C@H]2C(=O)O[C@H]([C@H](C)C[C@@H]2CC[C@@H](O)[C@H](OC)C2)CC(=O)[C@H](C)/C=C(\C)[C@@H](O)[C@@H](OC)C(=O)[C@H](C)C[C@H](C)/C=C/C=C/C=C/1C | – | – | – | Activity [15]: inactive; Activity [16]: inactive
